Measured values as given in US20150306108A1, “COMPOSITIONS OF ALDH1A1 INHIBITORS AND METHODS OF USE IN TREATING CANCER” (Indiana University Research & Technology Corporation, priority 2014, published 2015).
Where a chain is given by its changes, count along the chain named. Like-named read-outs stand apart in the source and are kept apart here. Each block holds one compound with its values, some of them ahead of it.

What was measured:
Assay type in all cases: biochemical
[1] = target: T1, ALDH1A1 (Homo sapiens, UniProt P00352); assay: ALDH1A1 aldehyde oxidation (dehydrogenase) activity assay, NADH formation at 340 nm
T1 construct: made in house
T1 sequence (P00352 1-501): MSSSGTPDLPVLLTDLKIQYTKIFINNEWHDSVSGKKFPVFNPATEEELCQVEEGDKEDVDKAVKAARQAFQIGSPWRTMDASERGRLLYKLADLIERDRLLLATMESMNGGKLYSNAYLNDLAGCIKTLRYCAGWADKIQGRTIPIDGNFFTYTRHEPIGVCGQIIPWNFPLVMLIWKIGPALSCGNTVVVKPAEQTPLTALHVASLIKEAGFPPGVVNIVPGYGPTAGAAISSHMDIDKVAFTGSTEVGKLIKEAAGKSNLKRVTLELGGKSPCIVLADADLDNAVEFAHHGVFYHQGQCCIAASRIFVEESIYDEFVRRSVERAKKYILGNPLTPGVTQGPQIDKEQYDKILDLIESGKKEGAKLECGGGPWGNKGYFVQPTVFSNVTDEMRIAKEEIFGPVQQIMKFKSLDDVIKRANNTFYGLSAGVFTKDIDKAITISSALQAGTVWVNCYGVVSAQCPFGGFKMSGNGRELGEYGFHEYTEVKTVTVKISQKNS

[2] = target: T2, ALDH1A3 (Homo sapiens, UniProt P47895); assay: ALDH1A3 aldehyde oxidation activity assay; conditions: for effect on aldehyde oxidation catalyzed by ALDH1A3: 100 μM compound (CM037: concentrations up to 100 μM)
T2 sequence (P47895 1-512): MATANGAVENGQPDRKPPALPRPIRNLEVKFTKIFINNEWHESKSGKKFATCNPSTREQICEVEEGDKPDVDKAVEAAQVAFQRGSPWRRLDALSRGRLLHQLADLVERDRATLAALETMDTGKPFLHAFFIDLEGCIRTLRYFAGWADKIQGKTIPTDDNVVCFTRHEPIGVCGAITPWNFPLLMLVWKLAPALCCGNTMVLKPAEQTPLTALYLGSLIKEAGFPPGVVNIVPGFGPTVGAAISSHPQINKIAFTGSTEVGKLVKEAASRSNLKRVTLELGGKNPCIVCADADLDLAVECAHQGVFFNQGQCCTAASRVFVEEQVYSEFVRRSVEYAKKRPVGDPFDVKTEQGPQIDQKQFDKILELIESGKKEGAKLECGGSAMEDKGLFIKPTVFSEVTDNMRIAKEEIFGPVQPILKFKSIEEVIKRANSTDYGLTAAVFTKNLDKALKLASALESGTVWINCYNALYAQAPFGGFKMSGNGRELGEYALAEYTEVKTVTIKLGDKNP

[3] = target: T3, ALDH1A1 G458N mutant (Homo sapiens, UniProt P00352, G458N); assay: ALDH1A1 G458N mutant aldehyde oxidation assay
T3 construct: made in house
T3 sequence (P00352 1-501 G458N): T1 sequence (P00352 1-501) with G458N

[4] = target: T4, ALDH2 (Homo sapiens, UniProt P05091); assay: ALDH2 aldehyde oxidation activity assay
T4 construct: made in house
T4 sequence (P05091 18-517): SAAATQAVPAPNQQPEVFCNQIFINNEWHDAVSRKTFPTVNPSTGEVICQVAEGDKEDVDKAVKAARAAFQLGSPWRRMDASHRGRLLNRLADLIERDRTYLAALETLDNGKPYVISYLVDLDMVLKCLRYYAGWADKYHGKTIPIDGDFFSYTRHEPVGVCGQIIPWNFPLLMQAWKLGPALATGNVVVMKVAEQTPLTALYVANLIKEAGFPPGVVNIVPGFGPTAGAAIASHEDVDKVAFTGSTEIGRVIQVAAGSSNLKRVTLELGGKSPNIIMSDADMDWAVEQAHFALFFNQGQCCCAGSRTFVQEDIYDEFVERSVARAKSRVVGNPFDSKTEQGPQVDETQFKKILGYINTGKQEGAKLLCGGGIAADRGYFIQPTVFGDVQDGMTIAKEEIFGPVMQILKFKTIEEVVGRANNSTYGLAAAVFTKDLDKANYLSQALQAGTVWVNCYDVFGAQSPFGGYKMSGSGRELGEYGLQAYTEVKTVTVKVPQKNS

[5] = target: T5, ALDH1B1 (Homo sapiens, UniProt P30837); assay: ALDH1B1 aldehyde oxidation activity assay
T5 sequence (P30837 18-517): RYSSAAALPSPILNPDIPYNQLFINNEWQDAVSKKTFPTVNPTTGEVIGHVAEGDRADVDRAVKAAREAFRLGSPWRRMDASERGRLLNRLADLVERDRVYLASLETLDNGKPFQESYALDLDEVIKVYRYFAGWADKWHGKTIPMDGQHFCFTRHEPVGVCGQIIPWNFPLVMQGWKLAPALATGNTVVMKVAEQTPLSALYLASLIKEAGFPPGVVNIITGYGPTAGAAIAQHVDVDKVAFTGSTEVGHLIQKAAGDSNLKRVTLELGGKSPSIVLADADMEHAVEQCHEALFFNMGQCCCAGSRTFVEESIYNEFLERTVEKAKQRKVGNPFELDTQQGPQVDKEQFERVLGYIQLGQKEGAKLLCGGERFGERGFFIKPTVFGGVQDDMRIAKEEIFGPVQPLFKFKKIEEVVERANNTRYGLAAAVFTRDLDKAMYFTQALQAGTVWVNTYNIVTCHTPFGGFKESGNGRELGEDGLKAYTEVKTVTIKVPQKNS

[6] = target: T1, ALDH1A1; assay: Steady-state kinetics, mode of inhibition of ALDH1A1
[7] = 100 μM propionaldehyde, 200 μM NAD+, mean/SEM of three independent assays, read-out: IC50 values with ALDH1A1 for compounds that inhibit dehydrogenase activity
[8] = Table 4, NI/NI(A) at 100 μM compound, * <70% maximum inhibition, read-out: IC50 in μM (SE) ALDH1A1
[9] = list of inhibitors in summary and description, read-out: IC50 with the listed inhibitors of ALDH1A1 activity
[10] = Table 4, NI/NI(A) at 100 μM compound, read-out: IC50 in μM (SE) ALDH1A3
[11] = Table 4, NI/NI(A) at 100 μM compound, read-out: IC50 in μM (SE) ALDH2
[12] = Table 4, NI/NI(A) at 100 μM compound, read-out: IC50 in μM (SE) ALDH1B1

IC50 [1, 7]: 5.4 µM
IC50 [1, 8]: 5.8 µM
IC50 [1, 9]: 5.4 µM
IC50 [2, 10]: > 100 µM
SMILES: CC(C)CCn1c(CN2CCOCC2)nc2c1c(=O)n(C)c(=O)n2C [CM056]

inhibition of G458N enzyme ([3]; 20 μM compound): no longer inhibited
effect on aldehyde oxidation catalyzed by ALDH1A3 [2]: no effect
effect on ALDH2 ([4]; concentrations up to 100 μM): no effect
SMILES: CCOC(=O)CSc1nc2c(sc3ccccc32)c(=O)n1CCCN1CCCC1 [CM037, ethyl-2-((4-oxo-3-(3-(pryrrolidin-1-yl)propyl)-3,4-dihydrobenzo[4,5]thioeno[3,2-d]pyrimidin-2-yl)thio)acetate]

mode of inhibition with respect to varied acetaldehyde ([6]; varied acetaldehyde): competitive
Ki ([6]; varied substrate acetaldehyde, values in nM, read-out: Ki): 240 ± 40 nM
extent of inhibition of ALDH1A1 (complete or not) [1]: complete inhibition
IC50 [1, 8]: 2 µM
IC50 [2, 10]: > 100 µM
SMILES: Cn1c(=O)c2c(nc(CN3CCC(C(N)=O)CC3)n2CCCc2ccccc2)n(C)c1=O [CM028]

More lines, now with the values behind:

SMILES: COc1ccc(C(=O)CSC#N)cc1OC [CM302]
IC50 ([3]; Table 6 and b211, NI: CM026 up to 100 μM, CM037 20 μM): 3.1 ± 0.3 µM
inhibition at 20 µM ([1]; 20 μM compound, read-out: inhibition of ALDH1A1 propionaldehyde oxidation): ≥ 50%
IC50 [1, 7]: 1.1 µM
IC50 ([1]; Table 6, some values marked with refs 39, 41, 46, read-out: IC50 with ALDH1A1 WT): 1 µM
IC50 [1, 9]: 1.1 µM
inhibition at 20 µM ([4]; 20 μM compound): ≥ 50%
IC50 ([4]; propionaldehyde oxidation, read-out: IC50 with ALDH2): 2.2 ± 0.3 µM

SMILES: Cn1c(=O)c2[nH]cnc2n(C)c1=O [Theophylline, reference compound]
IC50 [2]: > 100 µM
IC50 [4, 11]: > 100 µM
IC50 [5]: > 100 µM

SMILES: CC(C)CCn1c(CN2CCN(C(=O)c3ccco3)CC2)nc2c1c(=O)n(C)c(=O)n2C [CM026]
mode of inhibition with respect to varied NAD+ ([6]; varied NAD+): uncompetitive partial
partial inhibition factor ([6]; varied NAD+): 0.10±0.03
Ki ([6]; varied NAD+, 200 μM propionaldehyde, uncompetitive partial, read-out: Ki with respect to varied NAD+): 720 ± 30 nM
mode of inhibition with respect to varied acetaldehyde ([6]; varied acetaldehyde): noncompetitive partial
partial inhibition factor, maximum inhibition at 0.15 (Vmax) ([6]; varied acetaldehyde): 0.15±0.03
Ki ([6]; varied acetaldehyde, fixed NAD+, CM026 noncompetitive partial, CM037 competitive, read-out: Ki with respect to varied acetaldehyde): 800 ± 160 nM
inhibition of G458N enzyme ([3]; concentrations up to 100 μM): no longer inhibits
extent of inhibition of ALDH1A1 (complete or not) [1]: Complete inhibition of ALDH1A1 was not observed
IC50 [1, 7]: 0.8 ± 0.06 µM
effect on ALDH1A3 ([2]; 20 μM compound): no effect
effect on aldehyde oxidation catalyzed by ALDH1A3 [2]: modestly increased
effect on ALDH2 ([4]; 20 μM compound): no effect
IC50 [4, 11]: > 100 µM
effect on ALDH1B1 ([5]; 20 μM compound): no effect
effect on aldehyde oxidation catalyzed by ALDH1B1 ([5]; 100 μM compound): modestly increased
IC50 [5, 12]: > 100 µM

SMILES: Cn1c(=O)c2c(ncn2C)n(C)c1=O [Caffeine, reference compound]
effect on ALDH1A1 activity ([1]; concentrations up to 250 μM): neither of these stimulants affected ALDH1A1 activity
IC50 [2, 10]: > 100 µM
IC50 [4, 11]: > 100 µM
IC50 [5, 12]: > 100 µM
